In patent US12414983B2, “CD200AR ligands for cancer immunotherapy” (REGENTS OF THE UNIVERSITY OF MINNESOTA, priority 2019, dated 2025):

Assays:
CD14+ cells [1] = assay: Dendritic cell maturation: phenotyping for CD80, CD86, HLA-DR; format: cell-based, human; settings: peptide alone compared with GM-CSF+IL4, p<0.0001
Protocol: FIGS. 4A-4D. Targeting CD200 activation receptors enhances dendritic cell maturation. (FIGS. 4A, 4B) CD14 purified cells were pulsed with (FIG. 4A) GM-CSF+IL4 or equal molar ratios of peptides P1A8, P2A0, or P4A10 or (FIG. 4B) GM-CSF+IL4 plus equal molar ratios of peptides P1A8, P2A0, or P4A10 and incubated for 48 h. Cells were harvested and phenotyped for CD80, CD86, and HLA-DR. (FIG. 4C) Immature dendritic cells from donors with or without CMV were pulsed with the CMV antigen pp65+/−equal molar ratios of peptides P1A8, P2A0, or P4A10. Cells were washed, and autologous T-cells were added back and incubated for a further 48 h. Supernatants were analyzed for IFNγ production. (FIG. 4D) Immature dendritic cells were pulsed with the CMV antigen pp65+/−P4A10. After the cells were washed, autologous T-cells were added back and incubated for a further 48 h. Supernatants were analyzed for IFNγ, IL-6, TNFα and RANTES content. Error bars represent standard deviation (n=3 healthy donors/group, *P<0.05, **P<0.005, ***P<0.0005 by t-test). The data represent three separate healthy donors. Black bars represent CMV-negative donors.
Targeting CD200 activation receptors enhances dendritic cell maturation. TNF-regulated cytokines (Table 1) have been implicated in dendritic cell maturation. […] To substantiate this, CD14^+ cells were isolated from healthy human donors and pulsed with GM-CSF+IL4, P1A8, P2A0, or P4A10 27. Cells pulsed with P1A8, P2A0, and P4A10 expressed higher levels of the co-stimulatory molecules CD80, CD86, and HLA-DR than cells treated with GM-CSF+IL4 (p<0.0001; FIG. 4a). Moreover, we observed synergistic upregulation of CD80/86 and HLA-DR when CD14^+ cells were incubated with GM-CSF+IL4 and each of the peptides (p<0.0001) (FIG. 4b).

CD14+ cells [2] = assay: RNAseq / NanoString gene expression analysis of pulsed CD14+ cells; format: cell-based, human; settings: for mRNA expression of TNF-regulated cytokines: NanoString platform, FIG. 3b; for mRNA expression of cytokines released in response to TNF signaling: RNAseq, CD14+ cells
From the text: Nanostring gene expression analysis: Total RNA from CD14^+ cells was sent to New Zealand Genomics Limited (Dunedin, New Zealand) to measure the expression of genes that are differentially expressed during inflammation (nCounter GX, NanoString Technologies, Seattle, WA, USA). Briefly, total RNA was extracted from CD14^+ cells (MagJET RNA kit, Thermo Fisher Scientific, Waltham, MA) using the protocol adapted for tissue (KingFisher Duo machine, Thermo Fisher Scientific, Waltham, MA). RNA samples were then quantified (Qubit® 2.0 fluorometer, Thermo Fisher Scientific) and subjected to RNA integrity analysis (2100 Bioanalyzer, Agilent Technologies, Santa Clara, CA). Probes for the genes encoding CD44 (NM_001001392.1); NANOG (NM_024865.2); OCT4 (NM_002701.4); STAT3 (NM_139276.2); and the housekeeping genes glucuronidase beta (NM_000181.1), clathrin heavy chain (NM 4859.2), and hypoxanthine phosphoribosyltransferase 1 (NM_000194.1) were designed and manufactured by NanoString Technologies.
Expression data obtained with NanoString GX were analyzed by using nSolver Analysis Software 3.0 (nanostring.com/products/nSolver) with default settings, and normalized to housekeeping genes. nSolver was used to perform cluster analysis and to generate heat maps by using Java Treeview Version 1.1.6r4. Pathway analysis was performed by using the PathCards Pathway Unification Database (pathcards.genecards.org). Student's t-tests were used to determine significant differences (p<0.05).

T-lymphocytes = assay: P4A10 priming prior to antigen presentation, CD200R1 expression; format: cell-based; settings: not observed in mock-treated cells, FIG. 7d
From the text: The efficacy of the P4A10+autologous tumor lysate strategy in this context creates an interesting conundrum. The T-cells that respond to APC presentation following stimulation express the inhibitory CD200R129. The immune-stimulatory effects of these primed T-cells, therefore, are expected to be blunted upon entry into a glioblastoma microenvironment that is replete with soluble and tumor-expressed CD200. […] Such suppression was not observed in mock-treated cells. Similar downregulation of PD-1 was observed on APCs (p=0.005, FIG. 7c).

Human CD14+ cells = assay: Cytokine measurements in CD14+ cells pulsed with CD200AR-L peptide; format: cell-based; settings: for secretion of inflammatory cytokines from CD14+ cells: selection among 61 alanine-substituted peptides; for IL-1β in supernatant / TNFα in supernatant: CD14+ cells pulsed with peptide, 48 h, compared with non-pulsed controls
Protocol: Cytokine measurements. Human CD14^+ cells (5×10^5) were isolated from peripheral blood mononuclear cells (PBMCs) using anti-CD14 beads (BD Biosciences, San Jose, CA), typically yielding ≥70% recovery and ≥90% purity. Cells were pulsed with 2 μM CD200AR-L peptide and incubated for 48 h, after which the supernatants were analyzed by bead array for cytokine production (BD Biosciences, San Jose, CA).

[3] = system: immature dendritic cells (iDCs) and autologous T-cells; assay: CMV assay: iDCs pulsed with pp65 +/- peptide, then co-incubated with T-cells; format: cell-based, human; settings: for antigen-specific response, production of IFNγ: pp65+CD200AR-L peptide compared with pp65 alone
Protocol: Dendritic cell differentiation. Cytomegalovirus (CMV)-positive HLA-A2^+ lymphocyte packs were obtained from the American Red Cross, and CD14^+ cells were purified. Approximately 1×10^8 CD14^+ cells were cultured in polystyrene tissue-culture flasks at 37° C. in 5% CO2. GM-CSF (25 ng/mL) and IL-4 (40 ng/mL) were both added on days 3 and 5 to derive immature dendritic cells (iDCs).
CMV assay. iDCs (5×10^5) were pulsed with 10 μg of CMV antigen peptide pp65495-503 (NLVPMVATV) and cultured as described above. The iDCs were then washed three times, and 5×10^5 CD8^+ T-cells from CMV-positive donors were co-incubated with the pulsed iDCs. CMV-negative PBMCs were used as a negative control. Supernatants were collected after 48 h of incubation and analyzed for IFNγ production by cytometric bead array (BD Biosciences).
To assess the effects of P1A8, P2A0, and P4A10 on the antigen-specific response, we measured IFNγ release in the following assay. iDCs were pulsed with the CMV antigen pp65 with and without an equimolar amount of P1A8, P2A0, or P4A10. Autologous T-cells were then added and incubated with the iDCs for 48 h, after which IFNγ production was measured in the supernatants. Exposure to pp65 increased T-cell IFNγ production approximately 4-fold (FIG. 4c). Co-treatment of iDCs with pp65 and P1A8, P2A0, or P4A10 increased IFNγ release by an additional 2- to 3-fold over pp65 alone.

Splenocytes = Splenocytes pulsed with CD200 or PD-L1 +/- mCD200AR-L, flow cytometry for CTLA4 and PD-L1; format: cell-based; settings: splenocytes pulsed with CD200 or PD-L1
Protocol: FIGS. 14A-14C. […] Splenocytes were pulsed with CD200, PD-L1+/−mCD200AR-L. Cells were analyzed by flow cytometry for the (FIG. 14A) CD4^+CTLA4^+, (FIG. 14B) CD8^+CTLA4^+or (FIG. 14C) CD11b^+PD-L1^+ populations. Error bars are representative of n=2 *P<0.005, **P<0.0001.
We propose that soluble CD200 and PD-L1 inhibit T cell activation through multiple checkpoints (FIG. 10). Therefore, the effect of multiple suppressive molecules (CD200 and PD-L1) on T cell inhibition was investigated. […] In addition, following PD-L1 treatment, an upregulation of PD-L1 on CD11b and an upregulation of CTLA4 was observed on T cells. Being CTLA4 and PD-L1 propagate separate inhibitory signals, it was hypothesized that PD-L1 inhibits T cell activation through 1) direct CD200 and PD-L1 on T cells and 2) direct PD-L1 (on APCs)/PD-I (on […]) producing cytokines upregulating CTLA4, which would explain the enhanced responses seen in combination α-PD-1 and α-CTLA4 treatments. However, neither of them inhibit CD200 effect on T cells.
We next looked at the effects of CD200AR-L on T cell inhibition. […] Being CTLA4 and PD-L1 propagate separate inhibitory signals, we hypothesize that PD-L1 inhibits T cell activation through two separate mechanisms, 1) through direct PD-L1 (on APCs)/PD-I (on T cells) interactions and through cytokine production following PD-L1 binding to the PD-1 on CD11b cell, which would explain the enhanced responses seen in combination α-PD-1 and α-CTLA4 treatments.

Molecule | secretion of inflammatory cytokines from CD14+ cells (Human CD14+ cells) | antigen-specific response, production of IFNγ [3] | IL-1β in supernatant (Human CD14+ cells) | TNFα in supernatant (Human CD14+ cells) | also measured
CLFNTFGFGAISGTA (Ac-CLFNTFGFGAISGTA-NH2; listed as Homo sapiens) [P4A10] | maximally stimulated |  |  |  | levels of co-stimulatory molecules CD80, CD86, and HLA-DR (CD14+ cells [1]): higher levels; mRNA expression of TNF-regulated cytokines (CD14+ cells [2]): most potently and consistently induced; mRNA expression of cytokines released in response to TNF signaling (CD14+ cells [2]): notable increase; CD200R1 expression (T-lymphocytes): suppressed
CLFNTFGFGKISGTA (Ac-CLFNTFGFGKISGTA-NH2; listed as Homo sapiens) [P4] |  | significant antigen-specific response | statistically significant increases | statistically significant increases | 
IVTWQKKKAVSPENM (Ac-IVTWQKKKAVSPENM-NH2; listed as Homo sapiens) [P1] |  | significant antigen-specific response | statistically significant increases | statistically significant increases | 
NITLADEGCYMCLFN (Ac-NITLADEGCYMCLFN-NH2; cysteine pairing not given here; listed as Homo sapiens) [P2A5] | maximally stimulated |  |  |  | 
NITLEDEGCYMCLFN (Ac-NITLEDEGCYMCLFN-NH2; cysteine pairing not given here; listed as Homo sapiens) [P2A0] | maximally stimulated |  |  |  | levels of co-stimulatory molecules CD80, CD86, and HLA-DR (CD14+ cells [1]): higher levels; mRNA expression of TNF-regulated cytokines (CD14+ cells [2]): most potently and consistently induced; mRNA expression of cytokines released in response to TNF signaling (CD14+ cells [2]): notable increase
NITLEDEGCYMCLFN (Ac-NITLEDEGCYMCLFN-NH2; cysteine pairing not given here; listed as Homo sapiens) [P2] |  | significant antigen-specific response | statistically significant increases | statistically significant increases | 
NLVPMVATV [pp65, CMV antigen peptide pp65495-503, reference compound] |  |  |  |  | increase of T-cell IFNγ production ([3]; exposure to pp65 alone, FIG. 4c): approximately 4 fold
VTFSENHGVVIAPAY (Ac-VTFSENHGVVIAPAY-NH2; listed as Homo sapiens) [P3A12] | maximally stimulated |  |  |  | 
VTFSENHGVVIQPAY (Ac-VTFSENHGVVIQPAY-NH2; listed as Homo sapiens) [P3] |  | significant antigen-specific response | statistically significant increases | statistically significant increases | 
CD200: CD200 immune checkpoint protein used to pulse splenocytes (protein, UniProt O54901 31-278, looked up) OX-2 membrane glycoprotein: QVEVVTQDERKALHTTASLRCSLKTSQEPLIVTWQKKKAVSPENMVTYSKTHGVVIQPAYKDRINVTELGLWNSSITFWNTTLEDEGCYMCLFNTFGSQKVSGTACLTLYVQPIVHLHYNYFEDHLNITCSATARPAPAISWKGTGTGIENSTESHFHSNGTTSVTSILRVKDPKTQVGKEVICQVLYLGNVIDYKQSLDKGFWFSVPLLLSIVSLVILLVLISILLYWKRHRNQERGESSQGMQRMK |  |  |  |  | CTLA4 on CD4 cells (Splenocytes): upregulation; CTLA4 on CD8 cells (Splenocytes): not on CD8 cells
